Assay results taken from US7091025B2, “Malathion carboxylesterase” (priority 1995, dated 2006).
Where two headings read alike, the source gives them in different places.

What was measured:
[1] = test system: whole fly homogenates of L. cuprina strains; experiment: Chlorfenvinphos hydrolysis by whole fly homogenates; type: biochemical
Protocol: Enzyme samples were diluted in 0.1M imidazole-HCl buffer pH 7.0 (“imidazole buffer”) to a final volume of 50 μl. Reactions were started by the addition 0.5 μl of (^14C-ethyl)-chlorfenvinphos (CVP, 306.5 MBq/mmole, Internationale Isotope Munchen) from a 7.5 mM stock solution in ethanol. The reaction was incubated at 30° C. and stopped by the addition of 300 μl dichloromethane and 150 μl of water followed by vigorous vortex mixing. The reactions were centrifuged to separate phases and 150 μl of the upper, aqueous phase was taken for scintillation counting to determine the amount of ^14C-diethylphosphate produced by hydrolysis of CVP. Incubations with boiled enzyme were also performed to control for non-enzymic hydrolysis of CVP.
Whole fly homogenates of malathion resistant (strains RM-8, 60NE 1.1, 4.2, Beverly 6.2, Hampton Hill 6.1, Hampton Hill 6.2, Woodside 5.2, Rop Rmal 1, M22.2 6.3, M27.1 4.1), diazinon resistant (Gunning 107, Inverell 22, Q4, RM2.6, Llandillo 103, Sunbury 5.2) and susceptible (LBB 101, Llandillo 104, LS2) strains of L. cuprina were tested for esterase-mediated hydrolysis of CVP, a general OP (ie not a malathion-type OP). All 10 malathion resistant strains had greater CVP hydrolytic activities (1.5–3.0 pmol/min/mg) than the 3 susceptible strains (0.5–1.0 pmol/min/mg, but less activity than the 6 diazinon resistant strains (8.2–30.0 pmol/min/mg).

adult female L. cuprina = type: in vivo; conditions: for RF (Dz/para R): ratio of the LD50 of Llandillo 103 with the LD50 of LS2 / RF (Mal R): ratio of the LD50 of Woodside 5.2 with the LD50 of LS2: L. cuprina, NS = not significantly different from unity; for LD50 LS2 (OP Susceptible), with 95% confidence limits: strain LS2, topical in dioctylphthalate; for LD50 LS2 (OP Susceptible), with 95% confidence limits / LD50 Llandillo 103 (Dz/para Resistant), with 95% confidence limits / LD50 Woodside 5.2 (Mal Resistant), with 95% confidence limits: mortality at 24 hours; for LD50 Llandillo 103 (Dz/para Resistant), with 95% confidence limits: strain Llandillo 103, topical; for LD50 Woodside 5.2 (Mal Resistant), with 95% confidence limits: strain Woodside 5.2, topical
Text: (§1) The following organophosphorus compounds were used: diazinon (O,O-diethyl O-2-isopropyl-6-methylpyrimidin-4-yl phosphorothioate, 91%, Mallinckrodt), parathion-methyl (O,O-dimethyl O-4-nitrophenyl phosphorothioate, 97.0%, Bayer), parathion (O,O-diethyl O-4-nitrophenyl phosphorothioate, 99%, Pestanal grade, Riedel-de-Haën), fenthion (O,O-dimethyl O-[3-methyl-4-(methylthio)phenyl]phosphorothioate, 98.8%, Bayer), fenthion-ethyl (O,O-diethyl O-[3-methyl-4-(methylthio)phenyl] phosphorothioate, a gift from Dr. G. Levot), dichlorvos (2,2-dichlorovinyl dimethyl phosphate, 99%, Chem Service), diethyl-dichlorvos (2,2-dichlorovinyl diethyl phosphate, a gift from Dr. J. Desmarchelier), di-isopropyl-dichlorvos (2,2-dichlorovinyl di-isopropyl phosphate, a gift from Dr. J. Desmarchelier), malathion (S-1,2-bis(ethoxycarbonyl)ethyl O,O-dimethyl phosphorodithioate, technical grade, Nufarm), isopropyl malathion (S-1,2-bis(ethoxycarbonyl)ethyl O,O-di-isopropyl phosphorodithioate, a gift from Dr. J. Desmarchelier).
(§2) The toxicity of OPs in adult female L. cuprina was determined 3 or 4 days post-eclosion by application of OPs to the scutellum in 0.7 μl dioctylphthalate (Busvine, J. R., Bell, J. D. and Guneidy, A. M., Bulletin of Entomological Research 54: 589, 1963;; Townsend, M. G. and Busvine, J. R., Entomology Experimental and Applied 12: 243, 1969). Each OP was applied to at least 20 flies at each of at least 5 different concentrations, spanning the dose causing 50% mortality (LD50). Control groups were treated with solvent but no OP. Mortality was determined 24 hours later. Data were fitted to the probit curve using the Probit Or LOgit (POLO-PC) computer program (LeOra Software, 1987).

M. domestica = conditions: cited from earlier work; for Resistance factor of M. domestica (in parentheses), Dz/para resistance type / Resistance factor of M. domestica (in parentheses), malathion resistance type: Bell and Busvine 1967, Townsend and Busvine 1969
[2] = test system: adult L. cuprina, Woodside 5.2 strain (Mal Resistant); type: in vivo, Lucilia cuprina
Text: as §1, §2
(§3) LD50s of 10 OPs were determined for the Woodside 5.2 strain (homozygous for a malathion resistance allele of LcαE7) and the Llandillo 103 strain (homozygous for a parathion/diazinon resistance allele of LcαE7). LD50s were also determined for the OP susceptible LS2 strain in order to calculate resistance factors (Table 8).

[3] = test system: adult L. cuprina, Llandillo 103 strain (Dz/para Resistant); experiment: toxicity of OPs in adult female L. cuprina, Llandillo 103 strain; type: in vivo, Lucilia cuprina
Text: as §1, §2, §3

CCCC(=O)Oc1cccc2ccccc12 = experiment: α-naphthyl butyrate hydrolysis, expressed malathion susceptible LcαE7 product; type: biochemical, Lucilia cuprina; conditions: other: α-NB 6-200 μM, 25° C., pH 8.0
Protocol: (§4) The in vitro expression of the OP susceptible allele of LcαE7 (clone Lc743) is described in patent application PCT/AU 95/00016 (“Enzyme based bioremediation”).
(§5) The initial rates of reactions between cell extracts containing the expressed products of the malathion resistant and susceptible LcαE7 alleles and α-naphthyl acetate (α-NA) were determined at 25° C. using a recording spectrophotometer and the method of Mastrapaolo and Yourno (Analytical Biochemistry 115: 188, 1981). 6–200 μM α-NA dissolved in 10 μl of 2-methoxyethanol was added to 0.1 M Tris-HCl pH 8.0 (980 μl) in a quartz cuvette. α-Naphthyl acetate is slowly hydrolysed in water so a background rate was recorded before starting the enzymic reaction by the addition of 10 μl of diluted cell extract. Control reactions were performed with extracts of both uninfected cells and Bacpac 6 infected cells.
As described above for α-NA hydrolysis except that 6–200 μM α-naphthyl butyrate (α-NB) was used instead of α-NA.
(§6) Km and Vmax were calculated for both enzymes. Kcat was then calculated from the Vmax and the molarity of the LcαE7 products in their respective cell extracts (determined above).

CC(=O)Oc1cccc2ccccc12 = experiment: α-naphthyl acetate hydrolysis, expressed malathion susceptible LcαE7 product; type: biochemical, Lucilia cuprina; conditions: other: α-NA 6-200 μM, 25° C., pH 8.0
Protocol: as §4, §5, §6

Row | Molecule | RF (Dz/para R): ratio of the LD50 of Llandillo 103 with the LD50 of LS2 (adult female L. cuprina) | RF (Mal R): ratio of the LD50 of Woodside 5.2 with the LD50 of LS2 (adult female L. cuprina) | LD50 LS2 (OP Susceptible), with 95% confidence limits (adult female L. cuprina) | LD50 Llandillo 103 (Dz/para Resistant), with 95% confidence limits (adult female L. cuprina) | LD50 Woodside 5.2 (Mal Resistant), with 95% confidence limits (adult female L. cuprina) | Resistance factor of M. domestica (in parentheses), Dz/para resistance type (M. domestica) | Resistance factor of M. domestica (in parentheses), malathion resistance type (M. domestica) | also measured
1 | CCOP(=O)(OCC)O/C(=C\Cl)c1ccc(Cl)cc1Cl [CVP, chlorfenvinphos] |  |  |  |  |  |  |  | CVP hydrolytic activity ([1]; whole fly homogenates of 3 susceptible strains): 0.5 to 1.0 pmol/min/mg; CVP hydrolytic activity ([1]; whole fly homogenates of 6 diazinon resistant strains): 8.2 to 30.0 pmol/min/mg; CVP hydrolytic activity ([1]; whole fly homogenates of 10 malathion resistant strains): 1.5 to 3.0 pmol/min/mg
2 | CCOP(=S)(OCC)Oc1cc(C)nc(C(C)C)n1 [Diazinon, O,O-diethyl O-2-isopropyl-6-methylpyrimidin-4-yl phosphorothioate] | 10 | 5 | 57 (40–79), ng/fly | 550 (490–630), ng/fly | 270 (240–300), ng/fly | 20 | 2 | 
3 | COP(=O)(OC)OC=C(Cl)Cl [Dichlorvos, 2,2-dichlorovinyl dimethyl phosphate] | 4 | 7 | 41 (35–51), ng/fly | 150 (95–190), ng/fly | 270 (210–340) ng/fly | 3 | 6 | resistance factor towards dimethyl OP vs its diethyl analogue ([2]; Woodside 5.2): about two- to five-fold greater resistance factors
4 | CCOP(=O)(OC=C(Cl)Cl)OCC [Ethyl Dichlorvos, 2,2-dichlorovinyl diethyl phosphate] | 7 | 3 | 360 (300–420), ng/fly | 2370 (2320–2410), ng/fly | 1100 (700–1500) ng/fly |  |  | resistance factor towards diethyl OP vs its dimethyl analogue [3]: about two-fold greater resistance factors
5 | COP(=S)(OC)Oc1ccc(SC)c(C)c1 [Fenthion, O,O-dimethyl O-[3-methyl-4-(methylthio)phenyl]phosphorothioate] | 3 (3) | 5 | 61 (42–87), ng/fly | 210 (180–240) ng/fly | 320 (210–490) ng/fly | 3 (3) | 7 | resistance factor towards dimethyl OP vs its diethyl analogue ([2]; in vivo): about two- to five-fold greater resistance factors
6 | CCOP(=S)(OCC)Oc1ccc(SC)c(C)c1 [Fenthion-ethyl, O,O-diethyl O-[3-methyl-4-(methylthio)phenyl] phosphorothioate] | 2 | 2 | 330 (290–370) ng/fly | 690 (570–830) ng/fly | 730 (660–870) ng/fly |  |  | resistance factor towards diethyl OP vs its dimethyl analogue [3]: no significant difference
7 | CC(C)OP(=O)(OC=C(Cl)Cl)OC(C)C [Isopropyl Dichlorvos, 2,2-dichlorovinyl di-isopropyl phosphate] |  | 3 | 3500 (2200–4800), ng/fly | 4600 (3400–5900) ng/fly | 10200 (8800–12000) ng/fly |  |  | 
8 | CCOC(=O)CC(SP(=S)(OC(C)C)OC(C)C)C(=O)OCC (stereo not drawn) [Isopropyl Malathion, S-1,2-bis(ethoxycarbonyl)ethyl O,O-di-isopropyl phosphorodithioate] |  | 1.8 | 3600 (2700–4900), ng/fly | 4900 (3700–6200), ng/fly | 6400 (5900–7100), ng/fly |  | 4 | 
9 | CCOC(=O)CC(SP(=S)(OC)OC)C(=O)OCC (stereo not drawn) [Malathion, S-1,2-bis(ethoxycarbonyl)ethyl O,O-dimethyl phosphorodithioate] |  | > 130 | 550 (480–610), ng/fly | 490 (360–600) ng/fly | 4 ng/fly | 2 | 157 | fold greater doses survived by flies with malathion resistance alleles of αE7 (adult female L. cuprina; in vivo): more than 100 fold; resistance to malathion of malathion resistant M. domestica strains (M. domestica; literature): > 100 fold
10 | CCOP(=S)(OCC)Oc1ccc([N+](=O)[O-])cc1 [Parathion, O,O-diethyl O-4-nitrophenyl phosphorothioate] | 20 | 6 | 52 (48–55), ng/fly | 1050 (890–1280), ng/fly | 290 (270–310), ng/fly | 35 | 3 | resistance factor towards diethyl OP vs its dimethyl analogue [3]: about two-fold greater resistance factors
11 | COP(=S)(OC)Oc1ccc([N+](=O)[O-])cc1 [Parathion-methyl, O,O-dimethyl O-4-nitrophenyl phosphorothioate] | 12 | 27 | 16 (11–20), ng/fly | 185 (141–244), ng/fly | 430 (390–490), ng/fly | 9 | 10 | resistance factor towards dimethyl OP vs its diethyl analogue ([2]; Woodside 5.2): about two- to five-fold greater resistance factors
12 | Lucilia cuprina LcαE7 (esterase E3) gene product, malathion susceptible allele (strain LS2; clone Lc743), Trp at position 251 (Lucilia cuprina) |  |  |  |  |  |  |  | Km (CCCC(=O)Oc1cccc2ccccc12): 20 ± 5 µM; kcat (CCCC(=O)Oc1cccc2ccccc12): 300 ± 33.3 s⁻¹; Km (CC(=O)Oc1cccc2ccccc12): 70 ± 5 µM; kcat (CC(=O)Oc1cccc2ccccc12): 183 ± 5 s⁻¹
